In brackets after ≈: the same amount, converted by molar mass. Starred links: 1 amine or outer side, 2 acyl side, 3 side chain; linkers in the order of their positions; H or OH if unused. Positions of bridges follow the written chain, without caps; N, C: chain ends. Non-standard residues stand in square brackets, D forms with d. Residues, ends and D or L forms follow the SMILES beside them. ξ: configuration not given here. *: point of attachment. NMeLeu(3ξ-Me) = CN[C@H](C(=O)O)C(C)C(C)C; X1 = CC(C)C(C)C(C(=O)[*:2])N(C)[*:1]; Picolinoyl(3-OH) = O=C(c1ncccc1O)*; NMePhg = CN[CH](C(=O)O)c1ccccc1; Thr(3ξ) = CC(O)[C@H](N)C(=O)O; Abu = CC[C@H](N)C(=O)O; Sar = CNCC(=O)O
Key:
Staphylococcus aureus [1] = test: MIC repeated with a far lower dilution rate; type: cell-based; conditions: for MIC: far lower dilution rate, brain heart infusion broth
Source text: This MIC experiment was based on the two-fold dilutions. To differentiate neoviridogrisein II and viridogrisein in their antibiotic activity, the MIC determination was repeated with a far lower dilution rate.
Medium: brain heart infusion broth

Staphylococcus sp. = test: MIC, tube dilution method; type: cell-based; conditions: BHI broth
Escherichia coli = test: MIC, tube dilution method; type: cell-based; conditions: BHI broth
Proteus vulgaris = test: MIC, tube dilution method; type: cell-based; conditions: BHI broth
Pseudeomonas aeruginosa = test: MIC, tube dilution method; type: cell-based; conditions: BHI broth
[2] = system: Mycoplasma gallisepticum KP13; test: MIC, dilution method, Mycoplasma; type: cell-based; parameters: unit not given beside the values; conditions: Table 4; PPLO enrichment broth (Eiken)
Protocol: (§1) The MIC were determined by the dilution method.
Medium (1): PPLO enrichment broth (Eiken, Japan)
(§2) was tested in vitro agains several Mycoplasma strains.

Staphylococcus aureus [3] = test: MIC, tube dilution method; type: cell-based; conditions: BHI broth
[4] = system: Diplococcus pneumoniac type 1; test: MIC, tube dilution method; type: cell-based, Diplococcus pneumoniae; conditions: BHI broth containing 10% horse blood
Mycoplasma fermentans = test: MIC, dilution method, Mycoplasma; type: cell-based; conditions: Table 4; PPLO broth (Chanock's medium; Difco)
Protocol: as §1
(§3) (2): PPLO broth (Chanock's medium; Difco)
as §2

[5] = system: Mycoplasma pulmonis PG 22; test: MIC, dilution method, Mycoplasma; type: cell-based; conditions: Table 4; PPLO broth (Chanock's medium; Difco)
Protocol: as §1, §3, §2

[6] = system: Mycoplasma agalactiae PG 2; test: MIC, dilution method, Mycoplasma; type: cell-based; conditions: Table 4; PPLO broth (Chanock's medium; Difco)
Protocol: as §1, §3, §2

Streptococcus pyogenes = test: MIC, tube dilution method; type: cell-based; conditions: BHI broth containing 10% horse blood
Candida albicans = test: MIC, tube dilution method; type: cell-based; conditions: malt extract-yeast extract medium
Sarcina lutea = test: MIC, tube dilution method (incl. synergism with griseoviridin); type: cell-based
Solubility in solvents = type: physicochemical; conditions: for solubility in organic solvents: methanol, ethanol, propanols, n-butanol, dioxane, acetates, ketones, benzene, toluene, chlorinated solvents, DMF, DMSO
[7] = system: Bacillus subtilis ATCC 6633; test: MIC, tube dilution method; type: cell-based; conditions: BHI broth
Salmonella gallinanum = test: MIC, tube dilution method; type: cell-based; conditions: BHI broth

| Structure (SMILES) | MIC (Staphylococcus sp.; Staphylococcus sp. (PC)r) [µg/mL] | MIC (Staphylococcus sp.; Staphylococcus sp.) [µg/mL] | MIC (Escherichia coli) [µg/mL] | MIC (Proteus vulgaris) [µg/mL] | MIC (Pseudeomonas aeruginosa) [µg/mL] | MIC [2] | MIC (Staphylococcus aureus [3]; strain 209P) [µg/mL] | MIC (Staphylococcus aureus [3]; strain (BX-1633)(PC)r) [µg/mL] | MIC (Staphylococcus aureus [3]; strain (EM)r) [µg/mL] | MIC (Staphylococcus aureus [3]; strain (EM, CM, SM, PC, TC)r) [µg/mL] | MIC (Staphylococcus aureus [3]; strain (EM, OM)r) [µg/mL] | MIC (Staphylococcus aureus [3]; strain (PC, EM, NM)r) [µg/mL] | MIC (Staphylococcus aureus [3]; strain (PC, TC, EM, LM)r 1) [µg/mL] | MIC (Staphylococcus aureus [3]; strain (PC, TC, EM, LM)r 2) [µg/mL] | MIC (Staphylococcus aureus [3]; strain (SM, STH)r) [µg/mL] | MIC (Staphylococcus aureus [3]; strain (STH)r) [µg/mL] | MIC (Staphylococcus aureus [3]; strain (TC, CP, PC)r) [µg/mL] | MIC (Staphylococcus aureus [3]; strain (TC, EM, LM, CP)r) [µg/mL] | MIC (Staphylococcus aureus [3]; strain Russell(PC)r) [µg/mL] | MIC (Staphylococcus aureus [3]; strain Smith) [µg/mL] | also measured |
| --- | --- | --- | --- | --- | --- | --- | --- | --- | --- | --- | --- | --- | --- | --- | --- | --- | --- | --- | --- | --- | --- |
| CC(C)CC1NC(=O)C(NC(=O)c2ncccc2O)C(C)OC(=O)C(c2ccccc2)N(C)C(=O)C(C)NC(=O)C(C(C)C(C)C)N(C)C(=O)CN(C)C(=O)C2CCCN2C1=O (stereo not drawn) [NV II, neoviridogrisein II] ({Picolinoyl(3-OH)}-TLP[Sar][X1]A[NMePhg]; ester 1-C; configuration not given here) | 0.4 (≈ 0.463 µM) | 0.8 (≈ 0.927 µM) | > 25 | > 25 | > 25 | 0.025 | 0.1 (≈ 0.116 µM) | 0.2 (≈ 0.232 µM) | 0.4 (≈ 0.463 µM) | 0.2 (≈ 0.232 µM) | 0.4 (≈ 0.463 µM) | 0.4 (≈ 0.463 µM) | 6.25 (≈ 7.24 µM) | 6.25 (≈ 7.24 µM) | 0.2 (≈ 0.232 µM) | 0.8 (≈ 0.927 µM) | 0.2 (≈ 0.232 µM) | 6.25 (≈ 7.24 µM) | 0.2 (≈ 0.232 µM) | 0.2 (≈ 0.232 µM) | times more active than viridogrisein (Staphylococcus aureus [1]; from the MIC values of Table 2): 2-3 times; MIC (Staphylococcus aureus [1]; strain 209 P): 0.078 µg/mL (≈ 0.0904 µM); MIC (Staphylococcus aureus [1]; strain (EM, CM, SM, PC, TC)r): 0.125 µg/mL (≈ 0.145 µM); MIC (Staphylococcus aureus [1]; strain (TC, CP, PC)r): 0.094 µg/mL (≈ 0.109 µM); MIC (Staphylococcus aureus [1]; strain Bx-1633(PC)r): 0.125 µg/mL (≈ 0.145 µM); MIC (Staphylococcus aureus [1]; strain Russell(PC)r): 0.125 µg/mL (≈ 0.145 µM); MIC (Staphylococcus aureus [1]; strain Smith): 0.125 µg/mL (≈ 0.145 µM); MIC [4]: 0.4 µg/mL (≈ 0.463 µM); MIC (Mycoplasma fermentans): < 0.05; MIC [5]: 0.78; MIC [6]: 0.39; MIC (Streptococcus pyogenes): 0.2 µg/mL (≈ 0.232 µM); MIC (Candida albicans): > 25 µg/mL; MIC (Sarcina lutea; Table 1, BHI broth): 0.4 µg/mL; solubility in organic solvents (Solubility in solvents): soluble; solubility in petroleum ether and hexane (Solubility in solvents): practically insoluble; solubility in water and ethyl ether (Solubility in solvents): hardly soluble; MIC [7]: 0.4 µg/mL (≈ 0.463 µM); MIC (Salmonella gallinanum): > 25 µg/mL |
| C[C@@H]1C/C=C2\SC[C@@H](NC(=O)c3coc(n3)C[C@H](O)C[C@H](O)/C=C/C=C/CNC2=O)C(=O)O1 [GV, griseoviridin] | – | – | – | – | – | 0.10 | – | – | – | – | – | – | – | – | – | – | – | – | – | – | MIC (Mycoplasma fermentans): < 0.05; MIC [5]: 6.25; MIC [6]: 3.13; MIC (Sarcina lutea; Table 3, varied ratios of neoviridogriseins mixture to griseoviridin, tube dilution, brain heart infusion broth): 0.250 µg/mL |
| CC[C@@H]1NC(=O)[C@H](C(C)C(C)C)N(C)C(=O)CN(C)C(=O)[C@H]2CCCN2C(=O)[C@@H](CC(C)C)NC(=O)[C@@H](NC(=O)c2ncccc2O)C(C)OC(=O)[C@H](c2ccccc2)N(C)C1=O (stereo partly drawn) [NV I, neoviridogrisein I] ({Picolinoyl(3-OH)}-[Thr(3ξ)][dL][dP][Sar][NMeLeu(3ξ-Me)][Abu][NMePhg]; ester 1-C) | 0.8 (≈ 0.912 µM) | 0.8 (≈ 0.912 µM) | > 25 | > 25 | > 25 | – | 0.2 (≈ 0.228 µM) | 0.4 (≈ 0.456 µM) | 0.4 (≈ 0.456 µM) | 0.4 (≈ 0.456 µM) | 0.8 (≈ 0.912 µM) | 0.8 (≈ 0.912 µM) | 6.25 (≈ 7.13 µM) | 6.25 (≈ 7.13 µM) | 0.4 (≈ 0.456 µM) | 0.8 (≈ 0.912 µM) | 0.2 (≈ 0.228 µM) | 6.25 (≈ 7.13 µM) | 0.2 (≈ 0.228 µM) | 0.2 (≈ 0.228 µM) | MIC [4]: 0.2 µg/mL (≈ 0.228 µM); MIC (Streptococcus pyogenes): 0.4 µg/mL (≈ 0.456 µM); MIC (Candida albicans): > 25 µg/mL; MIC (Sarcina lutea; Table 1, BHI broth): 0.2 µg/mL; solubility in organic solvents (Solubility in solvents): soluble; solubility in petroleum ether and hexane (Solubility in solvents): practically insoluble; solubility in water and ethyl ether (Solubility in solvents): hardly soluble; MIC [7]: 0.4 µg/mL (≈ 0.456 µM); MIC (Salmonella gallinanum): > 25 µg/mL |

— US4536397A, “Antibiotics, neoviridogriseins, and their method of production” (Sanraku-Ocean Co., Ltd., priority 1983, dated 1985)
